Measurements taken from ChEMBL document CHEMBL1201862, “PubChem BioAssay data set” (2004).
The source made the active and inactive calls.

Tests used:
Ephrin type-A receptor 4 = Ephrin type-A receptor 4 (Mus musculus, UniProt Q03137); experiment: inhibitors of EphA4 binding to KYL peptide, primary screen, biochemical, colorimetric, mouse EphA4 (AID 689); type: functional
[1] = biological target: G-protein coupled receptor 55 (Homo sapiens, UniProt Q9Y2T6); experiment: GPR55 agonists via beta-arrestin recruitment, primary screen, imaging, U2OS cells, beta-arrestin-GFP redistribution (AID 1961); type: functional
[2] = biological target: Intestinal-type alkaline phosphatase (Mus musculus, UniProt P24822); experiment: PubChem AID 488785; type: functional
[3] = biological target: Alkaline phosphatase, placental type (Homo sapiens, UniProt P05187); experiment: PLAP enzyme inhibitors, confirmation, biochemical, luminescence (AID 1512); type: functional
[4] = biological target: Intestinal-type alkaline phosphatase (Homo sapiens, UniProt P09923); experiment: inhibition of human intestinal alkaline phosphatase – biochemical, dose response (AID 488876); type: functional
Troponin, cardiac muscle = Troponin, cardiac muscle (Homo sapiens, UniProt P19429+P45379+P63316); experiment: Fluorescence-based biochemical high throughput dose response assay for activators of the calcium sensitivity of cardiac Regulated Thin Filaments (RTF). [Related pubchem assays (depositor defined):AID493008, AID493018, AID504382, AID504383]; type: protein-complex assay
BJ [5] = experiment: cytotoxicity toward BJ-TERT fibroblasts, dose response, cell-based, RAS-independent, luminescence (AID 1933); type: functional; conditions: Homo sapiens
[6] = biological target: T1, Heat shock factor protein 1 (Mus musculus, UniProt P38532); experiment: inhibition of MG132-induced HSE-luciferase signal, confirmation, cell-based, NIH3T3, luminescence, dose retest (AID 2382); type: functional;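 note: NIH3T3 fibroblasts with HSF1-driven luciferase reporter stressed by proteasome inhibitor MG132; luminescence from HSF1-driven luciferase expression after 8 hours of MG132 stress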
T1 sequence (P38532 whole entry): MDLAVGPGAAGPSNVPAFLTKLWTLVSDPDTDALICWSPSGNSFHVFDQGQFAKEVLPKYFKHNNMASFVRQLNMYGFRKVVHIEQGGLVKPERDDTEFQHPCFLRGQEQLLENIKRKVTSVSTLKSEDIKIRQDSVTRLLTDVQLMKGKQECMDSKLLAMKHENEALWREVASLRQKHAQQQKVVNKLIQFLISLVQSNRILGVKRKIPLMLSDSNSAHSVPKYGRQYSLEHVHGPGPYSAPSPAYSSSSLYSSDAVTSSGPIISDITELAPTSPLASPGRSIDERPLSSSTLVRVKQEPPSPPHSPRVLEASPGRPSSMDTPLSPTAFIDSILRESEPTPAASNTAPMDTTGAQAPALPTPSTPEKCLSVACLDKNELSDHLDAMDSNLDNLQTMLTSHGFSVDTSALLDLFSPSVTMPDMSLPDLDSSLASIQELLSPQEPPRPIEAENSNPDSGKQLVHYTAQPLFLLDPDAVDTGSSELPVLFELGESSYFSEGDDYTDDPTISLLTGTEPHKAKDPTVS

BJ [7] = experiment: cells; type: functional, cell-based; conditions: Homo sapiens
BJ [8] = experiment: cytotoxicity toward BJ-TERT-LT-ST fibroblasts, dose response, cell-based, RAS-independent, luminescence (AID 1935); type: functional; conditions: Homo sapiens;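 note: BJ fibroblasts immortalized with TERT plus LT and ST oncogenes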
[9] = cytotoxicity toward DRD oncogenic fibroblasts, dose response, cell-based, non-viral oncogenic, luminescence (AID 1934); type: functional; conditions: Homo sapiens
Bcl-2-related protein A1 = biological target: T2, Bcl-2-related protein A1 (Mus musculus, UniProt Q07440); type: functional;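 note: confirmatory dose–response counterscreen on Bfl-1, used to check hits from a UBC13 polyubiquitin inhibitor campaign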
T2 sequence (Q07440 whole entry): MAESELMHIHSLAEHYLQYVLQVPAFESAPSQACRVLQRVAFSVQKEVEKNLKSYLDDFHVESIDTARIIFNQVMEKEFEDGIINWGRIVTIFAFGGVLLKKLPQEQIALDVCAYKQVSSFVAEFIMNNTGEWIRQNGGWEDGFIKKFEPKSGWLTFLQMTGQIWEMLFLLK

[10] = biological target: T3, Ubiquitin-conjugating enzyme E2 N (Homo sapiens, UniProt P61088); type: functional
T3 sequence (P61088 whole entry): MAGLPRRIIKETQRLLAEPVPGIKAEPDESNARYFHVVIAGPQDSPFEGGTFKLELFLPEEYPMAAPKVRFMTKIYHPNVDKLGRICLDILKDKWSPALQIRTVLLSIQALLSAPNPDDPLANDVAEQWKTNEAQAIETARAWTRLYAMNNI

[11] = biological target: T3, Ubiquitin-conjugating enzyme E2 N; type: functional; remark: listed apart in the source
[12] = biological target: T4, Type-1 angiotensin II receptor (Homo sapiens, UniProt P30556); experiment: AT1 receptor agonists, dose response, selectivity assay for APJ receptor agonist project, cell-based, uHTS hits (AID 488865); type: functional;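 note: beta-arrestin recruitment to AT1 measured by enzyme fragment complementation luminescence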
T4 sequence (P30556 whole entry): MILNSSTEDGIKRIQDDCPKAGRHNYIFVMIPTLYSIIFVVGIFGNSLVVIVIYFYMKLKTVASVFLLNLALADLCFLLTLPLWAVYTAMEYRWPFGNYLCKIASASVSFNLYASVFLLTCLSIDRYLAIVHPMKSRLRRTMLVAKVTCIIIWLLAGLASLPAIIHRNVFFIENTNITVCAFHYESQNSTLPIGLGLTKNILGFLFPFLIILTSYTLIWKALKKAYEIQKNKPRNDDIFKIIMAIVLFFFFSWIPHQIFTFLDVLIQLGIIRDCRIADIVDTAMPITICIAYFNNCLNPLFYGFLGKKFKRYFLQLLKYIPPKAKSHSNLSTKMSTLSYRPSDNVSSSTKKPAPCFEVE

BJ [13] = experiment: cytotoxicity toward Ras-transformed BJeLR fibroblasts, dose response, cell-based, alamar blue fluorescence, cherrypicked samples (AID 2631); type: functional; conditions: Homo sapiens;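 note: confirmatory dose-response assay in RAS-dependent BJ fibroblasts engineered with TERT, LT and ST, with cytotoxicity read by fluorescence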
INS1 = experiment: beta cell apoptosis inhibitors, cytokine rescue, dose response, luminescence, retest (AID 449756); type: functional, cell-based; conditions: Rattus norvegicus;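 note: cell death triggered by IL-1 beta plus TNF-alpha plus IFN-gamma mixture; protective hits raise ATP signal compared with cytokine alone wells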
Mu-type opioid receptor = Mu-type opioid receptor (Homo sapiens, UniProt P35372); experiment: SAR Analysis of Antagonists of the MOR Receptor using an Image-Based Assay - Set 3. [Related pubchem assays (depositor defined):AID1777, AID1785, AID1786, AID1966, AID2133, AID2136, AID2284, AID2285, AID2420]; type: functional
[14] = biological target: Delta-type opioid receptor (Homo sapiens, UniProt P41143); experiment: SAR Analysis of Antagonists of the DOR Receptor using an Image-Based Assay - Set 3. [Related pubchem assays (depositor defined):AID1777, AID1785]; type: functional;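 note: U2OS cells expressing DOR1 and beta-arrestin GFP stimulated with 100 nM SNC80; imaging of GFP-tagged beta-arrestin moving into spots after receptor activation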
[15] = biological target: T5, Kappa-type opioid receptor (Homo sapiens, UniProt P41145); experiment: SAR analysis of small molecule antagonists of the kappa opioid receptor via a luminescent beta-arrestin assay - Set 3. [Related pubchem assays (depositor defined):AID1777, AID1778, AID1785, AID1786, AID1966, AID2133, AID2136, AID2285, AID2495]; type: functional
[16] = biological target: T5, Kappa-type opioid receptor; experiment: SAR analysis of Antagonists of the Kappa Opioid Receptor (KOR) using an Image-Based Assay - Set 4. [Related pubchem assays (depositor defined):AID1777, AID1785]; type: functional
NADPH oxidase 1 [17] = biological target: T6, NADPH oxidase 1 (Homo sapiens, UniProt Q9Y5S8); type: functional, cell-based;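 note: Cell-based assay with luminescence read-out, IC50 derived from inhibitor dose-response curves; intracellular ROS from endogenous NOX1 in intact HT29 colon cancer cells; potency of inhibitors that lower the ROS luminescence signal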
T6 sequence (Q9Y5S8 whole entry): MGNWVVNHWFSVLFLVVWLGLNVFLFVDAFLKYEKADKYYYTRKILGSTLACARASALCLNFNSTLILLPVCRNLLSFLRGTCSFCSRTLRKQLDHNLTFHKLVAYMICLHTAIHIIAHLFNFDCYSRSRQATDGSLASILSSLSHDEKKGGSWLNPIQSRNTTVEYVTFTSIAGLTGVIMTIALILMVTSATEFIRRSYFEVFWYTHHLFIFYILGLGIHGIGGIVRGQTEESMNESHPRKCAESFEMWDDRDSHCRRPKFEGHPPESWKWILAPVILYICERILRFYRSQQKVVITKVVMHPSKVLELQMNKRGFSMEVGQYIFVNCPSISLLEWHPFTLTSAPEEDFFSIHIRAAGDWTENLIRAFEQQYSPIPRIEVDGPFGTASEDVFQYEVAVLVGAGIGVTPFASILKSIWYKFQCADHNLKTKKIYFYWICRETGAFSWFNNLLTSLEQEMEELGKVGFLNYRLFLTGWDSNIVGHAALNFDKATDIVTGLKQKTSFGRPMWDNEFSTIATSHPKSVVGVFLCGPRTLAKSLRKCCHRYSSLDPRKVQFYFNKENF

NADPH oxidase 1 [18] = biological target: T6, NADPH oxidase 1; experiment: ROS production inhibition in HEK293 cells, late-stage follow-up, counter-screen for NOX1 inhibitor project, cell-based, IC50, set 2 (AID 435002); type: functional
NADPH oxidase 3 = NADPH oxidase 3 (Homo sapiens, UniProt Q9HBY0); experiment: PubChem AID 435013
NADPH oxidase 2 = NADPH oxidase 2 (Homo sapiens, UniProt P04839); experiment: PubChem AID 435013
[19] = Luminescence Cell-Based Dose Response HTS to Identify Inhibitors of Luciferase Translation or Activity in H4-C Neuroglioblastoma Cells. [Related pubchem assays: 1813 (Primary HTS), 1827 (Project Summary)]; type: functional
[20] = Luminescence Cell-Based Dose Response HTS to Identify Activators of Luciferase Translation or Activity in H4-C Neuroglioblastoma Cells. [Related pubchem assays: 1829 (Project Summary), 1814 (Primary HTS)]; type: functional
[21] = Luminescence Cell-Based Dose Response HTS to Identify Activators of 5'UTR Stem-Loop Driven Prion Protein mRNA Translation in H4-C Neuroglioblastoma Cells. [Related pubchem assays: 1829 (Project Summary), 1814 (Primary HTS)]; type: functional
[22] = Luminescence Cell-Based Dose HTS Response to Identify Inhibitors of 5'UTR Stem-Loop Driven Prion Protein mRNA Translation in H4-C Neuroglioblastoma Cells. [Related pubchem assays (depositor defined):AID1814, AID1827]; type: functional
[23] = Luminescence Cell-Based Dose Response HTS to Identify Inhibitors of 5'UTR Stem-Loop Driven Prion Protein mRNA Translation in H4 Neuroglioblastoma Cells. [Related pubchem assays: 1827 (Project Summary), 1813 (Primary HTS)]; type: functional
[24] = inhibitors of SNCA 5'UTR-driven reporter translation, confirmation, H4 neuroglioma cells, luminescence (AID 1988); type: functional, cell-based
[25] = Luminescence Cell-Based Dose Confirmation HTS to Identify Inhibitors of 5'UTR Stem-Loop Driven Alpha-Synuclein mRNA Translation in H4 Neuroglioblastoma Cells. [Related pubchem assays: 1827 (Project Summary), 1813 (Primary HTS)]; type: functional
cells = type: functional, cell-based
[26] = biological target: T7, Nuclear receptor subfamily 0 group B member 1 (Homo sapiens, UniProt P51843); type: functional, cell-based;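 note: HEK293T cells transfected with SF-1 and DAX-1 plus StAR promoter luciferase reporter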
T7 sequence (P51843 whole entry): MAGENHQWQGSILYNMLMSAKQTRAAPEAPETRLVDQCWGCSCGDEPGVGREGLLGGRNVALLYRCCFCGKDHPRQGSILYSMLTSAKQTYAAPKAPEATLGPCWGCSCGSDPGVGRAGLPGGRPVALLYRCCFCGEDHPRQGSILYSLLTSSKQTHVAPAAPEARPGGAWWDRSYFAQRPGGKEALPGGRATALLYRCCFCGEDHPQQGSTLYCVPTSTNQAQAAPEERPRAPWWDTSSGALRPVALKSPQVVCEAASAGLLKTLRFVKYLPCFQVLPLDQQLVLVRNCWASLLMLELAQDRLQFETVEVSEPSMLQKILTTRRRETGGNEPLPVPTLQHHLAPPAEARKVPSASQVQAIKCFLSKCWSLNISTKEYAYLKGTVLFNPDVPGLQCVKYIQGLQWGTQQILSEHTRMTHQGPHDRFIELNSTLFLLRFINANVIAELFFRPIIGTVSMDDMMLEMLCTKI

T5 sequence (P41145 whole entry): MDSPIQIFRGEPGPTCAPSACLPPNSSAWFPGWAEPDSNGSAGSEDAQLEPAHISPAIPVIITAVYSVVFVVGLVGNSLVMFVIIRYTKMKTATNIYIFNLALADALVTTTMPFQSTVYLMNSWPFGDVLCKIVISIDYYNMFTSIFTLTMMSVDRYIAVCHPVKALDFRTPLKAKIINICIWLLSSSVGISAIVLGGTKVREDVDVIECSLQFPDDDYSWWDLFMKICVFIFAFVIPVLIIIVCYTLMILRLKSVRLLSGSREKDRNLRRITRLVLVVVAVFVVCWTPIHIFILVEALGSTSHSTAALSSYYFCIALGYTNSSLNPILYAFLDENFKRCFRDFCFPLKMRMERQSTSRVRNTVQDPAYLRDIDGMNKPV
Chain of Ephrin type-A receptor 4 (Q03137 whole entry): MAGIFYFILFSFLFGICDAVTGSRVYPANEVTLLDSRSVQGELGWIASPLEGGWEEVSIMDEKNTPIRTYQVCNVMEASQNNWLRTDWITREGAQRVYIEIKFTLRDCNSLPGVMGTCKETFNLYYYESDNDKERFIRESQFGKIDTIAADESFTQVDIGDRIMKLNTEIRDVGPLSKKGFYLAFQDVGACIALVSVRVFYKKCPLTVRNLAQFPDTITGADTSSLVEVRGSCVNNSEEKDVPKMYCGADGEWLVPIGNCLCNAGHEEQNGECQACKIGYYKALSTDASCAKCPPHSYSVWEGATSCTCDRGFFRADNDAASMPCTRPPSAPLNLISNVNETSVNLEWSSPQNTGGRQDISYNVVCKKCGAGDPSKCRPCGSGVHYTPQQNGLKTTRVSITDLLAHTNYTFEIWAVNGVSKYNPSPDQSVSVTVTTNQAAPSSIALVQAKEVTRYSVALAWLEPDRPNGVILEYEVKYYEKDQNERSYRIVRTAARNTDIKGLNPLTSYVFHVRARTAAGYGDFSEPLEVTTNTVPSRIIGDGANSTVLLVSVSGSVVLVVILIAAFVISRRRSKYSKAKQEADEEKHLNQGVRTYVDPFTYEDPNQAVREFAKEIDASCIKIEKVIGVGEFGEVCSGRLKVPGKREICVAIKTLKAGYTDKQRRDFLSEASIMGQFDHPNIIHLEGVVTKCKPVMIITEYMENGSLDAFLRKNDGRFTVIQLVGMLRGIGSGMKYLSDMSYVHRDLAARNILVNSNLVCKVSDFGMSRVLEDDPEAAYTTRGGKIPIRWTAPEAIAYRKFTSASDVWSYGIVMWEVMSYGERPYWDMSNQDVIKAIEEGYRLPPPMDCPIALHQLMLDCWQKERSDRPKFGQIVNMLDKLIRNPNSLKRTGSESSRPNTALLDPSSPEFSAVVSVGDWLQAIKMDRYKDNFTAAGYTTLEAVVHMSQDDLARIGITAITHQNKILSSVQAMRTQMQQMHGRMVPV
Chain of NADPH oxidase 2 (P04839 whole entry): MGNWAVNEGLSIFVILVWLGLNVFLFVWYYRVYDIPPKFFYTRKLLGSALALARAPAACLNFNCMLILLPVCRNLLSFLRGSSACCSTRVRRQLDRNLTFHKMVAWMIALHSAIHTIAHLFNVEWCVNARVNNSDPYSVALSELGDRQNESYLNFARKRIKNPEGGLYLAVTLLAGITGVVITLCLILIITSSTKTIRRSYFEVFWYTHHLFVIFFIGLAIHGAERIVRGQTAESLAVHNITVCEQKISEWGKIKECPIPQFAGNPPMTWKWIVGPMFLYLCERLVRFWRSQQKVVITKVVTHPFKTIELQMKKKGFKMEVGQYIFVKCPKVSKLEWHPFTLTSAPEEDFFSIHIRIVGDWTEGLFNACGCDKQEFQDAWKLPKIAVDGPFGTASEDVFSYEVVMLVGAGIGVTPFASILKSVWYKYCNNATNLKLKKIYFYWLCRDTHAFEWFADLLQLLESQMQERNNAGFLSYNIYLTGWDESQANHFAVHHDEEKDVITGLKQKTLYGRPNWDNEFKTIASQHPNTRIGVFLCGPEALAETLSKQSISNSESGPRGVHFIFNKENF
Chain of Mu-type opioid receptor (P35372 whole entry): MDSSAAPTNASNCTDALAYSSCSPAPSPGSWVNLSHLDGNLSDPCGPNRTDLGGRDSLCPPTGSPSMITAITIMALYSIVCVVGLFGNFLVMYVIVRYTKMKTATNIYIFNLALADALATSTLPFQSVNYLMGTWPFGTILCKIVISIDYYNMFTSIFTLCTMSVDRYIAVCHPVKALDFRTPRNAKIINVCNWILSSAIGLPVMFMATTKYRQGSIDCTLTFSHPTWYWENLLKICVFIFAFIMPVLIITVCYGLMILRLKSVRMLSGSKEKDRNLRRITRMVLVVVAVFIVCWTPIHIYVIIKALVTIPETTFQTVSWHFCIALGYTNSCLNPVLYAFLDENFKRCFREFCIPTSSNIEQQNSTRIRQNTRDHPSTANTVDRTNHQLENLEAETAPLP
Chain of NADPH oxidase 3 (Q9HBY0 whole entry): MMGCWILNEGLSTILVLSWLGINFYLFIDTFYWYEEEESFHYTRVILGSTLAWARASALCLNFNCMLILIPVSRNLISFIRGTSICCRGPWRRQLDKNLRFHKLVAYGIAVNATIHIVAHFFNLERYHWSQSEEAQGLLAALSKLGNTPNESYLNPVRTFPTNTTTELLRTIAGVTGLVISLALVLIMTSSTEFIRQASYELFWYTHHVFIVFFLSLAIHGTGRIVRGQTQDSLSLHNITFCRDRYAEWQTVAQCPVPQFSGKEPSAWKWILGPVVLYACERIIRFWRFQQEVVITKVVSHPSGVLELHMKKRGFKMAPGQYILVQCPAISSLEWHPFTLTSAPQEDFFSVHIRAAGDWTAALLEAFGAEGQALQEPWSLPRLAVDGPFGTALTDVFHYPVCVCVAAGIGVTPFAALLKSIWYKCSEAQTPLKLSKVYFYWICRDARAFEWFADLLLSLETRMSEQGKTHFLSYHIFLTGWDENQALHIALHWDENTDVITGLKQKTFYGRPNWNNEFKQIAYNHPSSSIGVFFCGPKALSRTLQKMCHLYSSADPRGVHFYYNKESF
Chain of Alkaline phosphatase, placental type (P05187 whole entry): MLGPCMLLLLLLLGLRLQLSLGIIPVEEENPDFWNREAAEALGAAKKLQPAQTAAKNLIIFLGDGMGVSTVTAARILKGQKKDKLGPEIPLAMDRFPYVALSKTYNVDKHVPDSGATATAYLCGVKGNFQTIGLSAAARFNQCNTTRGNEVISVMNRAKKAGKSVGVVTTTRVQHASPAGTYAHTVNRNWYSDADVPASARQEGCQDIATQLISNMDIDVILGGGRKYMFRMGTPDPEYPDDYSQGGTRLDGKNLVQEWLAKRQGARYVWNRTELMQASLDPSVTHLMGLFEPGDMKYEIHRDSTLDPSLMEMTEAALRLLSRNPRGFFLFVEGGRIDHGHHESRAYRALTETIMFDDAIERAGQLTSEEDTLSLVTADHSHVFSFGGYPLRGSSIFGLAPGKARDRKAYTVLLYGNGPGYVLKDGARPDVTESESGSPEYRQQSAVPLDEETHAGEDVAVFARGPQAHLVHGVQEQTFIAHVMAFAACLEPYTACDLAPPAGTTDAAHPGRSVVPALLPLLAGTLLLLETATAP
Chain of Intestinal-type alkaline phosphatase (Mus musculus, UniProt P24822) (P24822 whole entry): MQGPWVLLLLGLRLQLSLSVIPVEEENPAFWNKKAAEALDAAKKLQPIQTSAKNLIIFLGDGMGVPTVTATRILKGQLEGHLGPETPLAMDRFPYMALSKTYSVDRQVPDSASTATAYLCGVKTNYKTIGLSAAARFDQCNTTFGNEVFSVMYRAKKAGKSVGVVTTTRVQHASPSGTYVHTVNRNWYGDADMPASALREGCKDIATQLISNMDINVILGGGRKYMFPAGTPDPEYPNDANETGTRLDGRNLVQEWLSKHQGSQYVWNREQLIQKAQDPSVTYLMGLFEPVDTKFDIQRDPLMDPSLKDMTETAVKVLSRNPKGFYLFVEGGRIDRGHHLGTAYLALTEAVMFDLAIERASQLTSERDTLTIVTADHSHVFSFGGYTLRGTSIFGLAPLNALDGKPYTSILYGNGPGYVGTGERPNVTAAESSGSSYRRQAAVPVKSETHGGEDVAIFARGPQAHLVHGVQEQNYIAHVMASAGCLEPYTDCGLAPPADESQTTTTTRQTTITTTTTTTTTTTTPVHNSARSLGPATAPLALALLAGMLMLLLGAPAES
Chain of Intestinal-type alkaline phosphatase (Homo sapiens, UniProt P09923) (P09923 whole entry): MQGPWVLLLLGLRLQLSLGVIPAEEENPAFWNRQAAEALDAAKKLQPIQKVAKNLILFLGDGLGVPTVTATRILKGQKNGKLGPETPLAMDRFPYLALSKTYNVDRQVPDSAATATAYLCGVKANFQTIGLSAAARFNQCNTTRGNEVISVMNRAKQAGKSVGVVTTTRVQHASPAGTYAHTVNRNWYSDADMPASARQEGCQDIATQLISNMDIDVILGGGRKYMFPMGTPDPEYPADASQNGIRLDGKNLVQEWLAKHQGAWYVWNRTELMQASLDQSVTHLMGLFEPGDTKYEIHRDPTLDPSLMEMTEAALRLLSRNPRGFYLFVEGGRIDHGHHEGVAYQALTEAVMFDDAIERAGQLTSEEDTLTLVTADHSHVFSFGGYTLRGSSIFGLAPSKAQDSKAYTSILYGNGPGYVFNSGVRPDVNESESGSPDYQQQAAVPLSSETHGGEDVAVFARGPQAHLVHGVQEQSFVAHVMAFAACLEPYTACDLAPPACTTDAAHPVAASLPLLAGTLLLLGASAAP
Chain of G-protein coupled receptor 55 (Q9Y2T6 whole entry): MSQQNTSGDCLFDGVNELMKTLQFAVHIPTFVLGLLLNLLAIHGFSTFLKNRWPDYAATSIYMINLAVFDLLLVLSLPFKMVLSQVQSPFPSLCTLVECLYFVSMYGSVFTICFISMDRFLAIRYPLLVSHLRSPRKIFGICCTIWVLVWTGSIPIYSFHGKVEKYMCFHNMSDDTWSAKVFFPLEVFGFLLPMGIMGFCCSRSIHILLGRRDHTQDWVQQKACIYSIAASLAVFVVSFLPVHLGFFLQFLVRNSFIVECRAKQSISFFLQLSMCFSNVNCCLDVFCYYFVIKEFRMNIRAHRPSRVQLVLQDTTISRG

For `CCCCN1C(=O)/C(=C/C=C2\N(C)c3ccccc3C2(C)C)SC1=S`, the IC50 (Ephrin type-A receptor 4) was 5.34 µM (active) and the EC50 [1] was 0.731 µM (active).

With `C=C(C)c1cccc(C(C)(C)NC(=O)NC(c2ccccc2)c2ccc(OC)cc2)c1` (centres undefined) the IC50 [2] was 7.54 µM (active), the IC50 [3] was > 100 µM (inactive) and the IC50 [4] was 9.59 µM (active).

With `Cc1nnc(SCC(=O)NC(C)(C)C)n1C1CCCCC1` the EC50 (Troponin, cardiac muscle) was > 71.5 µM (inactive).

In the case of `COc1ccc(OC)c2sc(N(CCCN(C)C)C(=O)c3ccc(S(=O)(=O)N4CCc5ccccc5C4)cc3)nc12`, the EC50 (BJ [5]) was 0.357 µM (inconclusive), the EC50 [6] was 5.01 µM (active) and the EC50 (BJ [7]) was 2.43 µM (active). The EC50 (BJ [8]) was 0.432 µM (inconclusive), the EC50 [9] was 1.27 µM (inconclusive) and the IC50 (Bcl-2-related protein A1) was 8.51 µM (active). For the same molecule, the IC50 [10] was 2.47 µM (active), the IC50 [11] was 1.27 µM (active) and the EC50 [12] was > 100 µM (inactive). The EC50 (BJ [13]) was 0.289 µM (active) and the AC50 (INS1) was 1.75 µM (active).

In the case of `O=C(Cn1c(=O)c2cccn2c2cccnc21)NCCCN1CCN(c2ccc3c(c2)OCO3)CC1`, the IC50 (Mu-type opioid receptor) was > 32 µM (inactive), the IC50 [14] was > 32 µM (inactive) and the IC50 [15] was 4.23 µM (active). The IC50 [16] was 0.776 µM (active).

In the case of `Oc1c(Br)cc(/C=N/Nc2c(Cl)cncc2Cl)cc1Br`, the IC50 (NADPH oxidase 1 [17]) was 0.43 µM (active), the IC50 (NADPH oxidase 1 [18]) was 10 µM (active) and the IC50 (NADPH oxidase 3) was > 50 µM (inactive). The IC50 (NADPH oxidase 2) was > 50 µM (inactive).

With `CCc1ccc(CNC(=O)Cc2ccc(NC(=O)C3=C(C)OCCS3)cc2)cc1` the EC50 [19] was 51.1 µM (active), the EC50 [20] was 51.1 µM (inconclusive) and the EC50 [21] was 0.592 µM (inconclusive). The EC50 [22] was 0.592 µM (active), the EC50 (BJ [5]) was 7.66 µM (inconclusive) and the EC50 [23] was 104 µM (active). The EC50 [24] was 0.899 µM (active), the EC50 (BJ [7]) was 23.3 µM (active) and the EC50 [25] was > 195 µM (not active). For the same molecule, the EC50 (BJ [8]) was 3.01 µM (active), the EC50 [9] was 10.7 µM (inconclusive) and the EC50 (BJ [13]) was 0.379 µM (active). The IC50 (cells) was > 67.5 µM (inactive) and the IC50 [26] was > 67.5 µM (inactive).
